Several values for one entry are separate records, joined by “and”; a condition that tells them apart may be missing. Identical values can stand only once. Like-named read-outs stand apart in the source and are kept apart here.
Experiments:
[1] = test system: M.tb H37Rv reference strain; experiment: BACTEC 460TB assay of mycobacterial growth; type: cell-based, Mycobacterium tuberculosis
[2] = test system: M.tb (Beijing220) in mouse bone-marrow derived macrophages; experiment: Intracellular M.tb in mouse bone-marrow derived macrophage assay; type: cell-based, Mycobacterium tuberculosis; settings: 100 μM; for Activity against intracellular M.tb (Beijing220), in words: Fig 7; for Percentage killing of intracellular M.tb (Beijing220), Fig 7: MOI 2:1, drug on day 4 post infection, harvest day 2 post drug, first experiment (8 selective compounds)
deadenylylated MtbGS = biological target: T1, deadenylylated MtbGS (Mycobacterium tuberculosis, UniProt P9WN39); experiment: biochemical; design: species or system M. tuberculosis; settings: for inhibition at 10 µM: 10μM final concentration
T1 construct: made in house; host or cells: E. coli YMC11E with pTBSK

adenylylated MtbGS = biological target: T2, adenylylated MtbGS (Mycobacterium tuberculosis, UniProt P9WN39); experiment: biochemical; type: biochemical, M. tuberculosis; settings: for inhibition at 10 µM: 10μM final concentration; for Selectivity for adenylylated vs deadenylylated MtbGS: from % inhibition at 10μM of both enzyme forms
T2 construct: made in house; host or cells: E. coli YMC11E(DE3) with pTBSK and pTBglnE

M. tuberculosis = settings: both in vitro and in vivo; cited from earlier work
[3] = test system: M.tb H37Rv reference strain (ATCC 25618); design: method as in PMID 9145860; settings: approximately 10x higher than the minimal inhibitory concentrations; cited from earlier work
[4] = test system: M.tb (Beijing220) clinical isolate; settings: cited from earlier work
[5] = pre-incubation protocol, average over the 4 screens, read-out: Deadenylated Mtb GS (% inhibition) AVG
[6] = pre-incubation protocol, screen 1, read-out: Deadenylated Mtb GS (% inhibition) Screen 1
[7] = pre-incubation protocol, screen 2, read-out: Deadenylated Mtb GS (% inhibition) Screen 2
[8] = pre-incubation protocol, screen 3, read-out: Deadenylated Mtb GS (% inhibition) Screen 3
[9] = pre-incubation protocol, screen 4, read-out: Deadenylated Mtb GS (% inhibition) Screen 4
[10] = pre-incubation protocol, average over the 4 screens, read-out: Adenylated Mtb GS (% inhibition) AVG
[11] = pre-incubation protocol, screen 1, read-out: Adenylated Mtb GS (% inhibition) Screen 1
[12] = pre-incubation protocol, screen 2, read-out: Adenylated Mtb GS (% inhibition) Screen 2
[13] = pre-incubation protocol, screen 3, read-out: Adenylated Mtb GS (% inhibition) Screen 3
[14] = pre-incubation protocol, screen 4, read-out: Adenylated Mtb GS (% inhibition) Screen 4
[15] = dose-response assay, pre-incubation protocol, single assay values, read-out: IC50, adenylylated MtbGS
[16] = dose-response assay, enzyme form not given, read-out: IC50 concentration, MtbGS
[17] = dose-response assay, pre-incubation protocol, single assay values

T2 sequence (P9WN39 2-478 limits assumed): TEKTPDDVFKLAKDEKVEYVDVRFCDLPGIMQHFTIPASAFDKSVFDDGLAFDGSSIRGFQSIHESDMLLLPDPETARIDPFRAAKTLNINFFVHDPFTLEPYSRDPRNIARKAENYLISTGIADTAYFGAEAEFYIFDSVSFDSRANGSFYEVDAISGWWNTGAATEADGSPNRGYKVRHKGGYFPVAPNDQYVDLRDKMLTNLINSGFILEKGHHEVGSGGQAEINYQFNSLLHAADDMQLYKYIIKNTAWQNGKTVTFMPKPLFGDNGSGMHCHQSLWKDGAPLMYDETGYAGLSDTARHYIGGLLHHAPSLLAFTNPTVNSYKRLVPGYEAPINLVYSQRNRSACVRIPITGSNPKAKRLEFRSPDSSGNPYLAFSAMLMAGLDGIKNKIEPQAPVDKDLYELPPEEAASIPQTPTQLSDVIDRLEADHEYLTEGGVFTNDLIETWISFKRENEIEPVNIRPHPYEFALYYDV
T1 sequence (P9WN39 2-478 limits assumed): as above

SMILES | inhibition at 10 µM (deadenylylated MtbGS; [5]) | inhibition at 10 µM (deadenylylated MtbGS; [6]) | inhibition at 10 µM (deadenylylated MtbGS; [7]) | inhibition at 10 µM (deadenylylated MtbGS; [8]) | inhibition at 10 µM (deadenylylated MtbGS; [9]) | inhibition at 10 µM (adenylylated MtbGS; [10]) | inhibition at 10 µM (adenylylated MtbGS; [11]) | inhibition at 10 µM (adenylylated MtbGS; [12]) | inhibition at 10 µM (adenylylated MtbGS; [13]) | inhibition at 10 µM (adenylylated MtbGS; [14]) | Breakpoint concentration to which the H37Rv strain was sensitive [3] | other results
Cc1cccc(C)c1Nc1c(C(C)C)nc2ccccn12 [Compound 10057] | 59% | 67% | 62% | 47% | 58% | 99% | 100% | 99% | 98% | 100% |  | Growth inhibition of M.tb H37Rv (percentage of growth index) ([1]; 100 μM, day 6 of incubation, relative to control cultures): 53%; Activity against intracellular M.tb (Beijing220), in words [2]: moderate activity; Percentage killing of intracellular M.tb (Beijing220), Fig 7 [2]: 65%; IC50 (adenylylated MtbGS; [15]): 3.51 µM and 15.6 µM; IC50 (adenylylated MtbGS; [16]): < 100 µM; Selectivity for adenylylated vs deadenylylated MtbGS (adenylylated MtbGS): GS-adenylylated specific
COc1ccc(-c2nc3ccccn3c2Nc2c(C)cccc2C)cc1OC [Compound 10059] | 44% | 49% | 48% | 36% | 43% | 91% | 82% | 99% | 82% | 100% |  | Activity against intracellular M.tb (Beijing220), in words [2]: moderate activity; Percentage killing of intracellular M.tb (Beijing220), Fig 7 [2]: 54%; IC50 (deadenylylated MtbGS; [17]): 13.2 µM and 17.1 µM; IC50 (adenylylated MtbGS; [16]): < 100 µM; Selectivity for adenylylated vs deadenylylated MtbGS (adenylylated MtbGS): GS-adenylylated specific
Nc1nc(O)c2ccccc2n1 [Compound 12004] | 42% | 50% | 43% | 38% | 38% | 34% | 39% | 32% | 33% | 30% |  | Activity against M.tb H37Rv, in words ([1]; 100 μM final concentration): no activity
CS(=N)(=O)CC[C@H](N)C(=O)O (stereo partly drawn) [MSO, L-methionine-S,R-sulphoximine, reference compound] |  |  |  |  |  |  |  |  |  |  |  | Deadenylated Mtb GS (% inhibition) AVG (deadenylylated MtbGS): 100%; Deadenylated Mtb GS (% inhibition) Screen 1 (deadenylylated MtbGS): 100%; Deadenylated Mtb GS (% inhibition) Screen 2 (deadenylylated MtbGS): 100%; Deadenylated Mtb GS (% inhibition) Screen 3 (deadenylylated MtbGS): 99%; Deadenylated Mtb GS (% inhibition) Screen 4 (deadenylylated MtbGS): 100%; IC50 (deadenylylated MtbGS): 1.6 µM; Adenylated Mtb GS (% inhibition) AVG (adenylylated MtbGS): 99%; Adenylated Mtb GS (% inhibition) Screen 1 (adenylylated MtbGS): 100%; Adenylated Mtb GS (% inhibition) Screen 2 (adenylylated MtbGS): 100%; Adenylated Mtb GS (% inhibition) Screen 3 (adenylylated MtbGS): 96%; Adenylated Mtb GS (% inhibition) Screen 4 (adenylylated MtbGS): 100%; IC50 (adenylylated MtbGS; read-out: IC50, adenylylated MtbGS): 0.16 µM; Growth of M. tuberculosis (M. tuberculosis): inhibits growth
CP(=O)(O)CC[C@H](N)C(=O)O [PhosT, phosphinotricin, reference compound] | 100% | 100% | 98% | 100% | 100% | 98% | 100% | 95% | 97% | 100% |  | IC50 (deadenylylated MtbGS; [17]): 0.83 µM; IC50 (adenylylated MtbGS; [15]): 0.016 µM
CC[C@@H](CO)NCCN[C@@H](CC)CO [ethambutol] |  |  |  |  |  |  |  |  |  |  | 9.4 µg/mL | 
NNC(=O)c1ccncc1 [isoniazid] |  |  |  |  |  |  |  |  |  |  | 0.25 µg/mL | Susceptibility of the Beijing220 clinical isolate [4]: resistant
CO[C@H]1/C=C/O[C@@]2(C)Oc3c(C)c(O)c4c(O)c(c(/C=N/N5CCN(C)CC5)c(O)c4c3C2=O)NC(=O)/C(C)=C\C=C\[C@H](C)[C@H](O)[C@@H](C)[C@@H](O)[C@@H](C)[C@H](OC(C)=O)[C@@H]1C [rifampicin] |  |  |  |  |  |  |  |  |  |  | 2.0 µg/mL | Susceptibility of the Beijing220 clinical isolate [4]: resistant

Source: PMC5626031, “Differential inhibition of adenylylated and deadenylylated forms of M. tuberculosis glutamine synthetase as a drug discovery platform” (PLoS ONE, 2017)
